The Ki is the dissociation constant of the complex between target and ligand, obtained from inhibition or displacement.

Consider 40 compounds from patent US7214691B2, “2-substituted benzimidazole derivatives as selective melanin concentrating hormone receptor antagonists for the treatment of obesity and related disorders” (Schering Corporation, priority 2003, dated 2007).

In the first experiment the target is T1, MCH receptor (Homo sapiens, UniProt Q99705).
T1 construct: expressed in transfected cells; host or cells: CHO cells
T1 sequence (Q99705 whole entry): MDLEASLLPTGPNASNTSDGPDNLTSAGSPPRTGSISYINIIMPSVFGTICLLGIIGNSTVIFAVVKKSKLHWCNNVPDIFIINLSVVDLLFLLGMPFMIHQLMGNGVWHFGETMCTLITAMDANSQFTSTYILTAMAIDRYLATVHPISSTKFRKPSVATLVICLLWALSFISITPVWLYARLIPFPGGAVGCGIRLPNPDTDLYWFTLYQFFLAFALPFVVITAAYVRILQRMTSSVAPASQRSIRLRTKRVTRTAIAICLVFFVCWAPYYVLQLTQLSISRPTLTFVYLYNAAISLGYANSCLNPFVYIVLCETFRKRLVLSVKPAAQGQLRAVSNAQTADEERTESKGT
Description: MCH Receptor Binding Assay. The conditions noted are these: membranes from CHO cells expressing the MCH receptor, [125I]-MCH, SPA; class symbols; read-out: MCH Ki. The method, then: MCH Receptor Binding Assay: Membranes from CHO cells expressing the MCH receptor were prepared by lysing cells with 5 mM HEPES for 15 min at 4 C. Cell lysates were centrifuged ([…], 15 min) and the pellet was resuspended in 5 mM HEPES. For each 96-well plate (Microlite, Dynex Technologies), 1 mg of cell membranes were incubated with 10 mg of wheat germ agglutinin SPA beads (Amersham) for 5 min at 4 C in a volume of 10 ml of binding buffer (25 mM HEPES, 10 mM MGCl2, 10 mM NaCl, 5 mM MnCl2, 0.1% BSA). The membrane/bead mixture was centrifuged (1500×g, 3.5 min), the supernatant was aspirated, and the pellet was resuspended in 10 ml binding buffer. The centrifugation, aspiration and resuspension were then repeated. The membrane/bead mixture (100 μl) was then added to 96-well plates containing 50 μl of 500 pM [^125I]-MCH (NEN) and […] of the appropriate concentration of compound (4× the desired final concentration). Nonspecific binding was determined by including 1 μM MCH in the binding reaction. The binding reaction was incubated at room temperature for 2 h. Plates were then analyzed in a TOPCOUNT microplate scintillation counter (Packard). Data was analyzed and Ki values were determined using GraphPad Prism.
For the compound `CN(C)C(=O)N1CCC2(CC1)CC2(c1ccc(-c2cccc(C#N)c2)cc1)c1nc2cc(F)c(C(F)(F)F)cc2[nH]1` (centres unmarked) [Compound 27a], the Ki lay within 20 to 50 nM.
Regarding `N#Cc1cccc(-c2ccc(C(=C3CCN(CC4CC4)CC3)c3nc4cc(Cl)cc(Cl)c4[nH]3)cc2)c1` [Compound 1u], the Ki lay within 50 to 100 nM.
With `N#Cc1cccc(-c2ccc(C(=C3CCN(CC4CC4)CC3)c3nc4cc(Cl)c(Cl)cc4[nH]3)cc2)c1` [Compound 1d], the Ki was under 20 nM.
Still for that read-out and setting: then `N#Cc1cccc(-c2ccc(C(=C3CCN(Cc4ccccc4)CC3)c3nc4cc(F)c(Cl)cc4[nH]3)cc2)c1` [Compound 1b], with under 20 nM; and `N#Cc1cccc(-c2ccc(C(=C3CCN(Cc4ccccc4)CC3)c3nc4cc(F)ccc4[nH]3)cc2)c1` [Compound 1a], with over 100 nM; and `CC(C)(C)OC(=O)N1CCC(=C(c2ccc(-c3cccc(C#N)c3)cc2)c2nc3cc(F)c(F)cc3[nH]2)CC1` [Compound 1n], with over 100 nM.
Turning to `CC(C)(C)OC(=O)N1CCC2(CC1)CC2(c1ccc(-c2cccc(C#N)c2)cc1)c1nc2cc(Cl)c(Cl)cc2[nH]1` (centres unmarked) [Compound 23b], the inhibition constant Ki was over 100 nM.
On the same count and under the same terms, under `N#Cc1cccc(-c2ccc(C3(c4nc5cc(F)c(C(F)(F)F)cc5[nH]4)CC34CCN(c3nc5ccccc5s3)CC4)cc2)c1` (centres unmarked) [Compound 29c] stands over 100 nM; under `N#Cc1cccc(-c2ccc(C(=C3CCN(CC(=O)O)CC3)c3nc4cc(F)c(C(F)(F)F)cc4[nH]3)cc2)c1` [Compound 1z], under 20 nM; under `CC(C)S(=O)(=O)N1CCC2(CC1)CC2(c1ccc(-c2cccc(C#N)c2)cc1)c1nc2cc(Cl)c(Cl)cc2[nH]1` (centres unmarked) [Compound 26b], over 100 nM.
Same read-out and setting: then `O=Cc1cccc(-c2ccc(C(=C3CCN(CC4CC4)CC3)c3nc4cc(Cl)c(Cl)cc4[nH]3)cc2)c1` [Compound 1k], with 20 to 50 nM; and `N#Cc1cccc(-c2ccc(C(=C3CCN(CC4CC4)CC3)c3nc4cc(F)c(F)cc4[nH]3)cc2)c1` [Compound 1q], with 50 to 100 nM.
For the compound `CN(C)Cc1cccc(-c2ccc(C(=C3CCN(CC4CC4)CC3)c3nc4cc(Cl)c(Cl)cc4[nH]3)cc2)c1` [Compound 1l], the Ki lay within 20 to 50 nM.
For the compound `N#Cc1cccc(-c2ccc(C3(c4nc5cc(Cl)c(Cl)cc5[nH]4)CC34CCN(Cc3ccccc3)CC4)cc2)c1` (centres unmarked) [Compound 23c], the Ki is under 20 nM.
As to `N#Cc1cccc(-c2ccc(C3(c4nc5cc(F)c(C(F)(F)F)cc5[nH]4)CC34CCN(CC(=O)O)CC4)cc2)c1` (centres unmarked) [Compound 28a], the Ki was in the range of 20 to 50 nM.
On the same count and under the same terms, under `CCN(CC)C(=O)N1CCC(=C(c2ccc(-c3cccc(C#N)c3)cc2)c2nc3cc(F)c(C(F)(F)F)cc3[nH]2)CC1` [Compound 1x] stands 20 to 50 nM; under `N#Cc1cccc(-c2ccc(C3(c4nc5cc(F)c(C(F)(F)F)cc5[nH]4)CC34CCNCC4)cc2)c1` (centres unmarked) [Compound 24a], under 20 nM.
As for `N#Cc1cccc(-c2ccc(C(=C3CCNCC3)c3nc4c(Cl)cc(Cl)cc4[nH]3)cc2)c1` [Compound 1t], the Ki is over 100 nM.
The same measure, in the same setting: then `CN1CCC(=C(c2ccc(-c3cccc(C#N)c3)cc2)c2nc3cc(Cl)c(Cl)cc3[nH]2)CC1` [Compound 1e], with 20 to 50 nM.
Still for that read-out and setting: then `COc1cc(C(=C2CCNCC2)c2nc3cc(F)c(C(F)(F)F)cc3[nH]2)ccc1-c1cccc(C#N)c1` [Compound 1ab], with over 100 nM.
Same read-out and setting: then `CN(C)C(=O)N1CCC(=C(c2ccc(-c3cccc(C#N)c3)cc2)c2nc3cc(F)c(C(F)(F)F)cc3[nH]2)CC1` [Compound 1y], with 20 to 50 nM.
With `N#Cc1cccc(-c2ccc(C3(c4nc5cc(Cl)c(Cl)cc5[nH]4)CC34CCNCC4)cc2)c1` (centres unmarked) [Compound 24b], the Ki is under 20 nM.
Still for that read-out and setting: then `CC(C)(C)OC(=O)N1CCC2(CC1)CC2(c1ccc(-c2cccc(C#N)c2)cc1)c1nc2cc(F)c(C(F)(F)F)cc2[nH]1` (centres unmarked) [Compound 23a], with over 100 nM; and `N#Cc1cccc(-c2ccc(C(=C3CCNCC3)c3nc4cc(F)c(F)cc4[nH]3)cc2)c1` [Compound 1o], with 50 to 100 nM.
On the same count and under the same terms, under `CN1CCC(=C(c2ccc(-c3cccc(C#N)c3)cc2)c2nc3cc(F)c(F)cc3[nH]2)CC1` [Compound 1p] stands over 100 nM; under `CS(=O)(=O)N1CCC(=C(c2ccc(-c3cccc(C#N)c3)cc2)c2nc3cc(F)c(C(F)(F)F)cc3[nH]2)CC1` [Compound 1v], 50 to 100 nM; under `N#Cc1cccc(-c2ccc(C(=C3CCNCC3)c3nc4cc(C(F)(F)F)c(F)cc4[nH]3)cc2)c1` [Compound 1r], under 20 nM.
Same read-out and setting: under `CC(C)S(=O)(=O)N1CCC2(CC1)CC2(c1ccc(-c2cccc(C#N)c2)cc1)c1nc2cc(F)c(C(F)(F)F)cc2[nH]1` (centres unmarked) [Compound 26a] stands 50 to 100 nM; under `N#Cc1cccc(-c2ccc(C(=C3CCN(C4CCCC4)CC3)c3nc4cc(Cl)c(Cl)cc4[nH]3)cc2)c1` [Compound 1f], under 20 nM; under `CCN(CC)C(=O)N1CCC2(CC1)CC2(c1ccc(-c2cccc(C#N)c2)cc1)c1nc2cc(F)c(C(F)(F)F)cc2[nH]1` (centres unmarked) [Compound 27c], over 100 nM.
Turning to `Fc1cc(F)cc(-c2ccc(C(=C3CCN(CC4CC4)CC3)c3nc4cc(Cl)c(Cl)cc4[nH]3)cc2)c1` [Compound 1h], the inhibition constant Ki is over 100 nM.
On the same count and under the same terms, under `N#Cc1cccc(-c2ccc(C3(c4nc5cc(F)c(C(F)(F)F)cc5[nH]4)CC34CCN(c3nc5ccc(Cl)cc5s3)CC4)cc2)c1` (centres unmarked) [Compound 29b] stands over 100 nM.
On to `CS(=O)(=O)N1CCC(=C(c2ccc(-c3cccc(C#N)c3)cc2)c2nc3cc(Cl)c(Cl)cc3[nH]2)CC1` [Compound 1g], for which the Ki lay in the range of 50 to 100 nM.
For the compound `N#Cc1cccc(-c2ccc(C3(c4nc5cc(F)c(C(F)(F)F)cc5[nH]4)CC34CCN(c3nccs3)CC4)cc2)c1` (centres unmarked) [Compound 29a], the Ki was over 100 nM.
Same read-out and setting: under `COc1cc(C(=C2CCN(CC3CC3)CC2)c2nc3cc(F)c(C(F)(F)F)cc3[nH]2)ccc1-c1cccc(C#N)c1` [Compound 1aa] stands over 100 nM.
Still for that read-out and setting: under `N#Cc1ccc(-c2ccc(C(=C3CCN(CC4CC4)CC3)c3nc4cc(Cl)c(Cl)cc4[nH]3)cc2)cc1` [Compound 1i] stands over 100 nM; under `Clc1cc2nc(C(=C3CCN(CC4CC4)CC3)c3ccc(-c4cccc(CN5CCC5)c4)cc3)[nH]c2cc1Cl` [Compound 1m], 50 to 100 nM; under `Clc1cc2nc(C(=C3CCN(CC4CC4)CC3)c3ccc(-c4cccnc4)cc3)[nH]c2cc1Cl` [Compound 1j], 50 to 100 nM.
As to `N#Cc1cccc(-c2ccc(C3(c4nc5cc(Cl)c(Cl)cc5[nH]4)CC34CCN(CC3CC3)CC4)cc2)c1` (centres unmarked) [Compound 25b], the Ki was under 20 nM.
Still for that read-out and setting: then `N#Cc1cccc(-c2ccc(C(=C3CCNCC3)c3nc4cc(Cl)c(Cl)cc4[nH]3)cc2)c1` [Compound 1c], with under 20 nM.

The experiment is the same for the next values; noted with them: membranes from CHO cells expressing the MCH receptor, [125I]-MCH, SPA; numeric value in text; read-out: Ki value.
On to `N#Cc1cccc(-c2ccc(C3(c4nc5cc(F)c(C(F)(F)F)cc5[nH]4)CC34CCNCC4)cc2)c1` (centres unmarked) [Compound 24a], for which the Ki was 1.7 nM.
